Data on 23 compounds can be found in patent publication US20240298643A1, “BENZIMIDAZOLE COMPOUND OR SALT THEREOF, PREPARATION METHOD THEREFOR AND USE THEREOF, AND INSECTICIDE AND ACARICIDE AND USE THEREOF” (QINGDAO KANGQIAO PESTICIDES AND CHEMICALS GROUP CO., LTD., priority 2021, published 2024).

The subject of the test is Tetranychus cinnabarinus. The test can be described thus: acaricidal activity test, spraying kidney bean seedlings inoculated with mites. It is filed as in vivo. As to conditions: sprayed on kidney bean seedlings, living mites counted after 72 hours, 25° C. Here is the method:
This test example tested the acaricidal activity of the compounds prepared above, in particular against Tetranychus cinnabarinus, and a specific test process was as follows: • (1) compounds to be tested were dissolved with acetone, and the resulting solution was diluted with a 0.1 wt % Tween 80 aqueous solution to a desired concentration (see test examples 1-A to 1-D below in detail) to prepare medicaments, with the acetone content of not more than 5 wt %; • (2) one real leaf was removed from kidney bean seedlings grown to two real leaves, and the number of mites inoculated was investigated 24 hours after inoculation of Tetranychus cinnabarinus (the number of Tetranychus cinnabarinus inoculated for each kidney bean seedling was 50-150). The whole plants of three kidney bean seedlings were separately sprayed with the medicaments prepared in the step (1) by using a hand-held sprayer (the spray amount was 0.5 mL per plant). After the treatment, the kidney bean seedlings were placed in a constant temperature observation room (25° C.) for observation, the number of living mites was investigated after 72 hours, and the lethality was calculated: Lethality (%)=(the number of mites inoculated−the number of living mites after the medicaments are sprayed)/the number of mites inoculated×100.

As to `CCS(=O)(=O)n1c(-c2cc([N+](=O)[O-])cc(C(F)(F)F)c2)nc2ccccc21` [Compound 1-235], the Lethality is, setting by setting: (6.25 mg/L) 99%; (25 mg/L) 99%; (100 mg/L) 100%.

Regarding `CCS(=O)(=O)n1c(-c2ccc(F)c(C(F)(F)F)c2)nc2ccccc21` [Compound 1-27], the Lethality is listed as 90% (6.25 mg/L), 100% (25 mg/L) and 100% (100 mg/L).

In the case of `CCS(=O)(=O)n1c(-c2ccc(Cl)c(C(F)(F)F)c2)nc2ccccc21` [Compound 1-28], the Lethality (6.25 mg/L) is recorded as 97%, the Lethality (25 mg/L) was determined as 100% and the Lethality (100 mg/L) was 100%.

`CCCS(=O)(=O)n1c(-c2cc(C(F)(F)F)cc(C(F)(F)F)c2)nc2ccccc21` [Compound 1-254]: the Lethality was found to be 97% (6.25 mg/L), 100% (25 mg/L) and 100% (100 mg/L).

Take `CCS(=O)(=O)n1c(-c2ccc(Cl)cc2)nc2ccccc21` [KC4, reference compound]: the Lethality is 57% (25 mg/L) and 37% (100 mg/L).

Consider `CCS(=O)(=O)n1c(-c2cc(Cl)cc(OC(F)(F)F)c2)nc2ccccc21` [Compound 1-239], for which the Lethality by setting is: (6.25 mg/L) 100%; (25 mg/L) 100%; (100 mg/L) 100%.

On to `CCS(=O)(=O)n1c(-c2ccccc2F)nc2ccccc21` [KC2, reference compound], for which the Lethality is listed as 49% (25 mg/L) and 98% (100 mg/L).

On to `CCS(=O)(=O)n1c(-c2cc(Br)cc(C(F)(F)F)c2)nc2ccccc21` [Compound 1-214], for which the Lethality is, setting by setting: (6.25 mg/L) 97%; (25 mg/L) 100%; (100 mg/L) 100%.

`CCS(=O)(=O)n1c(-c2cc(Br)cc(OC(F)(F)F)c2)nc2ccccc21` [Compound 1-186] came in with a Lethality (6.25 mg/L) of 100%, a Lethality (25 mg/L) of 100% and a Lethality (100 mg/L) of 100%.

Consider `CCS(=O)(=O)n1c(-c2ccccc2)nc2ccccc21` [KC1, reference compound], for which the Lethality is, setting by setting: (25 mg/L) 52%; (100 mg/L) 82%.

For `CCS(=O)(=O)n1c(-c2cc(C#N)cc(C(F)(F)F)c2)nc2ccccc21` [Compound 1-218], the Lethality stood at 98% (6.25 mg/L), 99% (25 mg/L) and 100% (100 mg/L).

Turning to `CCS(=O)(=O)n1c(-c2ccc(F)c(C(F)(F)F)c2)nc2cc(F)c(F)cc21` [Compound 1-56], the Lethality turned out to be 95% (6.25 mg/L), 100% (25 mg/L) and 100% (100 mg/L).

Regarding `CCS(=O)(=O)n1c(-c2ccc(Cl)c(C(F)(F)F)c2)nc2cc(F)c(F)cc21` [Compound 1-57], the Lethality turned out to be 92% (6.25 mg/L), 100% (25 mg/L) and 100% (100 mg/L).

Take `CCS(=O)(=O)n1c(-c2cc(Cl)cc(Cl)c2)nc2ccccc21` [KC6, reference compound]: the Lethality is 86% (25 mg/L) and 100% (100 mg/L).

Take `CCS(=O)(=O)n1c(-c2ccccc2Cl)nc2ccccc21` [KC3, reference compound]: the Lethality runs as follows: (25 mg/L) 70%; (100 mg/L) 88%.

Consider `CCCCS(=O)(=O)n1c(-c2cc(C(F)(F)F)cc(C(F)(F)F)c2)nc2ccccc21` [Compound 1-255], for which the Lethality worked out at 91% (6.25 mg/L), 100% (25 mg/L) and 100% (100 mg/L).

For `CCS(=O)(=O)n1c(-c2cc(C(F)(F)F)cc(C(F)(F)F)c2)nc2cc(Cl)c(Cl)cc21` [Compound 1-265], the Lethality runs as follows: (6.25 mg/L) 100%; (25 mg/L) 100%; (100 mg/L) 100%.

`CCS(=O)(=O)n1c(-c2cc(Cl)cc(C(F)(F)F)c2)nc2ccccc21` [Compound 1-213] returned a Lethality (6.25 mg/L) of 99%, a Lethality (25 mg/L) of 100% and a Lethality (100 mg/L) of 100%.

Consider `CS(=O)(=O)n1c(-c2cc(Cl)cc(C(F)(F)F)c2)nc2ccccc21` [Compound 1-133], for which the Lethality is 99% (6.25 mg/L), 100% (25 mg/L) and 100% (100 mg/L).

Take `CCS(=O)(=O)n1c(-c2cc(C(F)(F)F)cc(C(F)(F)F)c2)nc2ccccc21` [Compound 1-47]: the Lethality (6.25 mg/L) is given as 99%, the Lethality (25 mg/L) is on record as 100% and the Lethality (100 mg/L) came out at 100%.

As to `CCS(=O)(=O)n1c(-c2ccc(F)cc2)nc2ccccc21` [KC5, reference compound], the Lethality is, setting by setting: (25 mg/L) 40%; (100 mg/L) 66%.

Take `CCS(=O)(=O)n1c(-c2cc(C(F)(F)F)cc(C(F)(F)F)c2)nc2cc(F)c(F)cc21` [Compound 1-257]: the Lethality reads like this: (6.25 mg/L) 98%; (25 mg/L) 100%; (100 mg/L) 100%.

On to `CCS(=O)(=O)n1c(-c2cc(F)cc(C(F)(F)F)c2)nc2ccccc21` [Compound 1-174], for which the Lethality runs as follows: (6.25 mg/L) 98%; (25 mg/L) 98%; (100 mg/L) 100%.
